Biological target: T1, Taste receptor type 2 member 46 (Homo sapiens) (UniProt P59540)
T1 sequence (whole entry): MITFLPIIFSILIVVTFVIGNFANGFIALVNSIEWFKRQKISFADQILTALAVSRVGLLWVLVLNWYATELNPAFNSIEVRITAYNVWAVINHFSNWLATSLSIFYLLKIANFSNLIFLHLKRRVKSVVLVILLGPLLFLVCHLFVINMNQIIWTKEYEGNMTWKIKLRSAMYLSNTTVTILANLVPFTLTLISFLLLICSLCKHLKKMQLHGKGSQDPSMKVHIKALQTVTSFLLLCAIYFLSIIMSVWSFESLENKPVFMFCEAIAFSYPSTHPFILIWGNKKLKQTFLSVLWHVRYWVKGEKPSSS
Experiment: Agonist activity human TAS2R46 transiently expressed in HEK293T/Galpha16-gustducin 44 cells assessed as effect on calcium flux by measuring deltaF/F0 ratio by Fluo-4-AM dye based FLIPR assay
Assay type: functional, cell-based

With `COc1ccc2c(c1)[C@]13CCCC[C@@H]1[C@H](C2)N(C)CC3` the Activity was “Dose-dependent effect”.

— ChEMBL document CHEMBL4421729 (2013)
